Results from paper doi:10.1101/2024.08.29.610163v8, “Structural Snapshots of B12-Dependent Methionine Synthase’s Catalytic Conformations” (biorxiv, 2026).
Substitutions are numbered along the chain they refer to.

Legend:
tMS^HcyFolCapCob [1] = biological target: T1, tMS^HcyFolCapCob (Thermus thermophilus, UniProt Q5SKM5, F110A/E123A/E124A/Y296A/D651A/P652A/G653A); experiment: X-ray crystal structure, […] Å; assay type: binding; details: pre-Hcy-on, prCbl holoenzyme, mutant 1
T1 construct: gene TTHA0618; Hcy-Fol-Cap-Cob tetradomain, lacks Act domain; N-terminal His6 tag cut with TEV; about 95 kDa monomer; E. coli BL21star(DE3)
T1 sequence (Q5SKM5 1-877 F110A/E123A/E124A/Y296A/D651A/P652A/G653A): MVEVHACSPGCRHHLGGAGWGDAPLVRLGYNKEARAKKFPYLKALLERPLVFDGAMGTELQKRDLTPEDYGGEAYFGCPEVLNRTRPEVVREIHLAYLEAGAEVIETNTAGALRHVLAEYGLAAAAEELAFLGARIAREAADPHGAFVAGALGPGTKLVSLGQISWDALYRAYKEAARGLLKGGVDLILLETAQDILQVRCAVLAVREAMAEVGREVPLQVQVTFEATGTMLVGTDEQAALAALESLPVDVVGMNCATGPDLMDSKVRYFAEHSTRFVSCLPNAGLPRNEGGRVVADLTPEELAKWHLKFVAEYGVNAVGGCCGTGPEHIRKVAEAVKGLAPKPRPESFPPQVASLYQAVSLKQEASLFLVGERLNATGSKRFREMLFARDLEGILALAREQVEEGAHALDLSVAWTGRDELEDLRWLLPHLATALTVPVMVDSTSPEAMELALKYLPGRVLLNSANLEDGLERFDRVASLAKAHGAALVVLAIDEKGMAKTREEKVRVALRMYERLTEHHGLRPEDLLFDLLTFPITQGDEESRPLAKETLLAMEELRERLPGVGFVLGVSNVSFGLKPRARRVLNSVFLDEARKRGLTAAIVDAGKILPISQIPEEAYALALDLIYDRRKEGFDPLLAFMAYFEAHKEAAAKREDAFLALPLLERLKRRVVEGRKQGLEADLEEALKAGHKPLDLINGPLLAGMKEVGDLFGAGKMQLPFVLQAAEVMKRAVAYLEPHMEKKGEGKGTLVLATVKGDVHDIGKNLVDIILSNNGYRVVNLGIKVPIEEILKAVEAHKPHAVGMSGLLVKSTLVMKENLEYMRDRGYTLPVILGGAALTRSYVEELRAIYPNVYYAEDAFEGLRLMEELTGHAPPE

tMS^ΔN35Hcy (tMS^Hcy) = biological target: T2, tMS^ΔN35Hcy (tMS^Hcy) (Thermus thermophilus, UniProt Q5SKM5); experiment: UV-Vis methylcobalamin consumption; assay type: biochemical; details: 100 µM homocysteine; 20 µM free MeCbl; 2 µM enzyme; pH 7.4, 0.5 mM TCEP, 50 °C
T2 construct: gene TTHA0618; isolated Hcy domain lacking N-terminal 35 residues; N-terminal His6-TEV tag, no cut described; E. coli BL21star(DE3)
T2 sequence (Q5SKM5 36-340 limits assumed): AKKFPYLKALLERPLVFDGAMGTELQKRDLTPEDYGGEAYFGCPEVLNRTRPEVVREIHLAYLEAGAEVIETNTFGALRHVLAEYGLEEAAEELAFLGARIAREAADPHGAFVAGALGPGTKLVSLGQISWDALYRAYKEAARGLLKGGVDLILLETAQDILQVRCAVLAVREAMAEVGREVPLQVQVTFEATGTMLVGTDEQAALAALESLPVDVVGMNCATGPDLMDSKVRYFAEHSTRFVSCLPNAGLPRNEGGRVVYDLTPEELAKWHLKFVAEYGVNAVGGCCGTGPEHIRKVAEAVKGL

tMS^HcyFol = biological target: T3, tMS^HcyFol (Thermus thermophilus, UniProt Q5SKM5); experiment: UV-Vis methylcobalamin consumption; assay type: biochemical; details: 100 µM homocysteine; 23 µM CapCob-bound MeCbl or 20 µM free MeCbl; 2 µM enzyme; pH 7.4, 0.5 mM TCEP, 50 °C
T3 construct: gene TTHA0618; Hcy-Fol didomain; N-terminal His6-TEV tag, no cut described; E. coli BL21star(DE3)
T3 sequence (Q5SKM5 1-640 limits assumed): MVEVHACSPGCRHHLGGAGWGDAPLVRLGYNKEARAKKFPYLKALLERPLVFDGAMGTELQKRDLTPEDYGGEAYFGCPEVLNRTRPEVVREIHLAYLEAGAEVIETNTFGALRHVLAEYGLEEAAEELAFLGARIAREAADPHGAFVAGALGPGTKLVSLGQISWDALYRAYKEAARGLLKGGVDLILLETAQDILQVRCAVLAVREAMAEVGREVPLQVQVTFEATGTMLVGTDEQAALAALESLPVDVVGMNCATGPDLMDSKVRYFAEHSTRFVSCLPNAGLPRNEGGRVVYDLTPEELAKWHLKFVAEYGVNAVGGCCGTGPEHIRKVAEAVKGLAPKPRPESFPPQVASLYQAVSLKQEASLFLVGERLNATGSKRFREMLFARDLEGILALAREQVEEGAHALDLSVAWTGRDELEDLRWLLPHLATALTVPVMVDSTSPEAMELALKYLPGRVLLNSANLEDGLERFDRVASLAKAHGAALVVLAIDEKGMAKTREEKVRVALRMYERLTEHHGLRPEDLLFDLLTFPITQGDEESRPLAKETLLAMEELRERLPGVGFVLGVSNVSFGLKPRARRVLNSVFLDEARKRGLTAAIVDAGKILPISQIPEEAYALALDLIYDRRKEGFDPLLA

tMS^HcyFolCapCob [2] = biological target: T4, tMS^HcyFolCapCob (Thermus thermophilus, UniProt Q5SKM5, F110A/E123A/E124A/R268A/D651A/P652A/G653A/D759A/N774H/R826A); experiment: X-ray crystal structure, […] Å; assay type: binding; details: Hcy-on; aeCbl holoenzyme; co-purified; Fol domain; mutant 2
T4 construct: gene TTHA0618; Hcy-Fol-Cap-Cob tetradomain, lacks Act domain; N-terminal His6 tag cut with TEV; about 95 kDa monomer; E. coli BL21star(DE3)
T4 sequence (Q5SKM5 1-877 F110A/E123A/E124A/R268A/D651A/P652A/G653A/D759A/N774H/R826A): T1 sequence (Q5SKM5 1-877 F110A/E123A/E124A/Y296A/D651A/P652A/G653A) with R268A, A296Y, D759A, N774H, R826A

**Q.** Which results are given for `N[C@@H](CCS)C(=O)O` [homocysteine]?
**A.** X-ray crystal structure, 2.45 Å (tMS^HcyFolCapCob [1]; Hcy domain site): HCY was found bound in the pre-Hcy-on structure (9CBP); UV-Vis methylcobalamin consumption (tMS^ΔN35Hcy (tMS^Hcy)): Consumption of exogenous methylcobalamin was detected in the presence of both tMS ^HcyFol and tMS^Hcy; UV-Vis methylcobalamin consumption (tMS^HcyFol): consumption of methylcobalamin when bound to tMS^CapCob was observed with tMS^HcyFol

**Q.** What does the source list for `Nc1nc2c(c(=O)[nH]1)N[C@@H](CNc1ccc(C(=O)N[C@@H](CCC(=O)O)C(=O)O)cc1)CN2` [tetrahydrofolate]?
**A.** X-ray crystal structure, 2.45 Å (tMS^HcyFolCapCob [1]; co-purified, Fol domain): tetradomain did yield a folate-bound structure, modelled as tetrahydrofolate (Ligand ID THG); X-ray crystal structure, 2.38 Å (tMS^HcyFolCapCob [2]): pre-Hcy-on (Cap-on, 9CBP) and Hcy-on (9CBR) states copurified with the folate demethylation byproduct
